Reference: ChEMBL document CHEMBL5512622, “Ecto-nucleotide pyrophosphatase/phosphodiesterase 1 inhibitors: Research progress and prospects” (Eur J Med Chem, 2024)
Values belong to the molecule of their own block, whether it stands above or below them.

Columns and labels:
[1] = target: T1, Ectonucleotide pyrophosphatase/phosphodiesterase family member 1 (Homo sapiens, UniProt P22413); experiment: Inhibition of recombinant human ENPP1 using p-NP-TMP as substrate incubated for 45 mins by absorbance based analysis
T1 sequence (P22413 whole entry): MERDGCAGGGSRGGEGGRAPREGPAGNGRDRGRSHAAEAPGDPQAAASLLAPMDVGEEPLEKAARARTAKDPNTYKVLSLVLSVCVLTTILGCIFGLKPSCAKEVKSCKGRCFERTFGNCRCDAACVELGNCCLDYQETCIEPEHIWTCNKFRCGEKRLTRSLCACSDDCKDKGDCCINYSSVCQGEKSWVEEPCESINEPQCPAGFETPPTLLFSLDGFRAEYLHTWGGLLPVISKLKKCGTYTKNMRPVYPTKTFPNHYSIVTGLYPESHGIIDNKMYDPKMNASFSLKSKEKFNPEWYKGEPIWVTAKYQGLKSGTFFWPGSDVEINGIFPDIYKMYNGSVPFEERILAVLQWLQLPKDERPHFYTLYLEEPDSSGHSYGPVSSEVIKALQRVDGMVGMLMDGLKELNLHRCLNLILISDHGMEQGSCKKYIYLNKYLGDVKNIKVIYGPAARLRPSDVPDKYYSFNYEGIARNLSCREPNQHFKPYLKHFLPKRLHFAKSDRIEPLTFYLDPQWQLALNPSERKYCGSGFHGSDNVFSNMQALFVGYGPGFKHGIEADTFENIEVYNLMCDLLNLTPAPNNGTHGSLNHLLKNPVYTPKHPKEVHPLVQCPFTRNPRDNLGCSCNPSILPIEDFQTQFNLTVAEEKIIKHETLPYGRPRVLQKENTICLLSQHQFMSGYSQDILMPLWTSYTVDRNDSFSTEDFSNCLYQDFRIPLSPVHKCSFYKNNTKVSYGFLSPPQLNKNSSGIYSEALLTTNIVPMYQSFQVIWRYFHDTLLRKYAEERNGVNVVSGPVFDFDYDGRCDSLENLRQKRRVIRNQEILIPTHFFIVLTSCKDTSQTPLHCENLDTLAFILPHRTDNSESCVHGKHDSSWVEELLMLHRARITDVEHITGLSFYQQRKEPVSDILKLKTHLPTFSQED

[2] = target: T1, Ectonucleotide pyrophosphatase/phosphodiesterase family member 1; experiment: Inhibition of recombinant human ENPP1 using 2',3'-cGAMP as substrate preincubated for 5 to 10 mins followed by substrate addition and measured after 90 mins by […] assay
MDA-MB-231 = experiment: Antiproliferative activity against human MDA-MB-231 cells incubated for 48 hrs by CCK8 assay; conditions: MDA-MB-231, 48 h
[3] = target: T1, Ectonucleotide pyrophosphatase/phosphodiesterase family member 1; experiment: Inhibition of recombinant human ENPP1 using ATP as substrate assessed as inhibition constant incubated for 30 mins by Lineweaver-Burk plot analysis
[4] = Cmax in ICR mouse at 5 mg/kg, po measured after 24 hrs by LC/MS/MS analysis; format: ADME, organism-based; conditions: in vivo
[5] = Half-life in ICR mouse at 5 mg/kg, po measured after 24 hrs by LC/MS/MS analysis; format: ADME, organism-based; conditions: in vivo
[6] = AUC in ICR mouse at 5 mg/kg, po measured after 24 hrs by LC/MS/MS analysis; format: ADME, organism-based; conditions: in vivo
[7] = target: T1, Ectonucleotide pyrophosphatase/phosphodiesterase family member 1; experiment: Inhibition of ENPP1 (unknown origin) using TMP-pNP as substrate preincubated for 10 mins followed by substrate addition and measured immediately under pH 8.8 by absorbance based multimode plate reader analysis
[8] = target: T1, Ectonucleotide pyrophosphatase/phosphodiesterase family member 1; experiment: Inhibition of ENPP1 in HEK293 cells using 2',3'-cGAMP as substrate by AMP-Glo assay; format: cell-based
[9] = target: T1, Ectonucleotide pyrophosphatase/phosphodiesterase family member 1; experiment: Inhibition of ENPP1 (unknown origin) using cGAMP as substrate assessed as inhibition constant at pH 7.4
[10] = Cmax in CD-1 mouse at 50 mg/kg, po measured after 24 hrs by LC-MS/MS analysis; format: ADME, organism-based; conditions: in vivo
[11] = AUClast in CD-1 mouse at 50 mg/kg, po measured after 24 hrs by LC-MS/MS analysis; format: ADME, organism-based; conditions: in vivo
[12] = target: T1, Ectonucleotide pyrophosphatase/phosphodiesterase family member 1; experiment: Inhibition of recombinant human ENPP-1 using AMP-pNP as substrate incubated for 20 mins by absorbance based plate reader analysis
[13] = target: T1, Ectonucleotide pyrophosphatase/phosphodiesterase family member 1; experiment: Inhibition of human ENPP-1 using 2',3'-cGAMP as substrate preincubated for 15 mins followed by substrate addition and measured after 30 mins by AMP-Glo reagent based assay
[14] = target: T1, Ectonucleotide pyrophosphatase/phosphodiesterase family member 1; experiment: Inhibition of ENNP1 (unknown origin) using 2',3'-cGAMP as substrate preincubated with compound followed by substrate addition and measured after 60 mins by AMP-Glo reagent based assay
[15] = target: T2, Ectonucleotide pyrophosphatase/phosphodiesterase family member 1 (Homo sapiens) (UniProt P22413); experiment: Binding affinity to recombinant human ENPP1 assessed as thermal stabilization by measuring change in melting temperature incubated for 5 mins by SYPRO orange dye based thermal shift assay
T2 sequence (whole entry): T1 sequence (P22413 whole entry)

[16] = target: T3, Ectonucleotide pyrophosphatase/phosphodiesterase family member 1 (Mus musculus, UniProt P06802); experiment: Inhibition of ENPP1 in mouse plasma using [32P]cGAMP as substrate; format: cell-free
T3 sequence (P06802 whole entry): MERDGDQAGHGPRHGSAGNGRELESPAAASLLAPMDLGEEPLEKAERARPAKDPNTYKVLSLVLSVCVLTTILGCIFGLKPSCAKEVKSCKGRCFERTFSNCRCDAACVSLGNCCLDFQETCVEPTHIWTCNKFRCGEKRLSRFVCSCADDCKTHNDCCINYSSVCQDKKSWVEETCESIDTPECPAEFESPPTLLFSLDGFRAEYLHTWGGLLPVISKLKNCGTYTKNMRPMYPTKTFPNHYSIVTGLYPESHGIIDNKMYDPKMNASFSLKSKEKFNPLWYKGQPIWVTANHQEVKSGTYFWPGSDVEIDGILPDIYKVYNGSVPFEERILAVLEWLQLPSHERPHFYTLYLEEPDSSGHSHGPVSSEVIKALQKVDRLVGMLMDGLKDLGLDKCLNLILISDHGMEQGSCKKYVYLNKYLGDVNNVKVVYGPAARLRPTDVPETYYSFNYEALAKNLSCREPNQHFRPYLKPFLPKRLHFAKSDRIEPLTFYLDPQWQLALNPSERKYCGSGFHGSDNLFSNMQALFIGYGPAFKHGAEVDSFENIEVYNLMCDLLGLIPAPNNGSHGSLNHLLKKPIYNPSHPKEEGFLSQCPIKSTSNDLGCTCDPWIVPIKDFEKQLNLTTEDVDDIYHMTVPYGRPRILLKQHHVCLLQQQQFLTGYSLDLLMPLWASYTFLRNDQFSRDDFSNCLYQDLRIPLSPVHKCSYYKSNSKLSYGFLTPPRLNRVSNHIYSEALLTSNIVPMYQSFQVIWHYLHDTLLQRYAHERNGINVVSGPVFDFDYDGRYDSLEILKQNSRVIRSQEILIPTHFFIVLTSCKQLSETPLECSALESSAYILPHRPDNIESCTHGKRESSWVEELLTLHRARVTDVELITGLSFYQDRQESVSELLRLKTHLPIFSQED

- IC50 [1]: < 200 nM
SMILES: COc1ccc(NC(=O)CSc2nc(C(=O)O)c[nH]2)cc1Cl

SMILES: COc1cc2c(-c3ccc(CNS(N)(=O)=O)c(F)c3)n[nH]c(=O)c2cc1OC
- IC50 [2]: < 1000 nM

- IC50 (MDA-MB-231): < 1000 nM
SMILES: COc1ccc2[nH]c(SCc3nc4cc(F)ccc4c(=O)[nH]3)nc2c1

- Ki [3]: 5000 nM
SMILES: Nc1ncnc2c1ncn2[C@@H]1O[C@H](COP(=O)(O)OP(=O)(O)OP(=O)(O)O)[C@@H](OC(=O)c2ccc(C(=O)c3ccccc3)cc2)[C@H]1O

- IC50 [1]: < 200 nM
SMILES: COc1ccc(NC(=O)CSc2nc(C(=O)OCC(O)CO)c[nH]2)cc1OC (stereo unspecified)

- Ki [3]: 5000 nM
SMILES: Nc1ncnc2c1ncn2[C@@H](C=O)O[C@@H](C=O)COP(=O)(O)OP(=O)(O)OP(=O)(O)O

- Cmax [4]: 736 ng/mL
- half-life [5]: 3.26 h
- AUC at 24 h [6]: 619 ng·h/mL
SMILES: COc1ccc2c(Oc3ccc(CC(=O)NO)cc3)ccnc2n1

- IC50 [7]: < 10 nM
SMILES: NC(=O)c1ccc2c(ncn2Cc2ccc(B(O)O)cc2)n1

- IC50 [2]: < 1000 nM
SMILES: Nc1ccc(F)c(-c2ccnc3c2CCC(=O)N3)c1

- Ki [3]: 5000 nM
SMILES: CSc1nc(N)c2ncn([C@@H]3O[C@H](COP(=O)(O)OP(=O)(O)OP(=O)(O)O)[C@@H](O)[C@H]3O)c2n1

- IC50 [8]: < 10 nM
- Ki [9]: < 10 nM
- Cmax [10]: 1680 ng/mL
- AUC(0-t) at 24 h [11]: 4130 ng·h/mL
SMILES: COc1cccc2c(N3CCC(CC(CNC(=O)[C@@H](N)C(C)(C)C)P(=O)(O)O)CC3)ncnc12 (stereo partly specified)

- IC50 [12]: < 100 nM
- IC50 [13]: < 100 nM
SMILES: COc1cc2ncc3ncn(Cc4ccc(CS(N)(=O)=O)cn4)c3c2cc1OC

- IC50 [1]: < 200 nM
SMILES: COc1ccc(NC(=O)CSc2nc(C(N)=O)c[nH]2)cc1OC

SMILES: Nc1ncnc2c1ncn2[C@@H]1O[C@H](COP(=O)(O)CP(=O)(O)O)[C@@H](O)[C@H]1O [PHOSPHOMETHYLPHOSPHONIC ACID ADENOSYL ESTER]
- Ki [3]: 5000 nM

- Ki [7]: < 100 nM
SMILES: NC(=O)c1c[nH]c2c(NCc3ccc(B(O)O)cc3)ncnc12

- IC50 [14]: < 1 nM
SMILES: COc1ncc2nc(C(F)(F)F)n(Cc3ncc(S(N)(=O)=O)cc3F)c2c1-c1ccccc1

- ΔTm [15]: 1.11 °C
SMILES: COc1ccc(NC(=O)CSc2nc3c(C)c(C#N)ncc3[nH]2)cc1O

- Ki [3]: 5000 nM
SMILES: CSc1nc(N)c2ncn([C@@H]3O[C@H](COP(=O)(O)OP(=O)(O)O)[C@@H](O)[C@H]3O)c2n1

- Ki [9]: < 2 nM
SMILES: COc1cccc2c(N3CCC(CCP(=O)(O)O)CC3)c(C#N)cnc12

- Ki [7]: < 100 nM
SMILES: NC(=O)c1c[nH]c2c(NCc3ccc(P(=O)(O)O)cc3)ncnc12

- IC50 [2]: < 1000 nM
SMILES: COc1ccc2c(c1)nnn2-c1ccc(CNS(N)(=O)=O)c(F)c1

- Ki [9]: < 2 nM
- Cmax [10]: 67.2 ng/mL
- Ki [16]: 4 nM
- AUC(0-t) at 24 h [11]: 344 ng·h/mL
SMILES: COc1cccc2c(N3CCC(CCP(=O)(O)O)CC3)ncnc12
